According to patent publication US20040198752A1, “Method for inhibiting retinoid skin damage” (priority 2001, published 2004):
pIC50: −log10 of the molar value. Read-outs that look alike come from different tables or passages of the source.

How the values were obtained:
[1] = 0.1, 0.5 and 1 mg/kg/day; cited from earlier work
[2] = tested on: organ-cultured human skin; test: RA-induced epidermal hyperplasia in human skin organ culture; type: cell-based
From the text: Immediately upon biopsy, the tissue was immersed in culture medium consisting of Keratinocyte Basal Medium (KBM) (Clonetics, Inc., Walkersville, Md.). KBM is a low-Ca^2+, serum-free modification of MCDB-153 medium optimized for high-density keratinocyte growth (Wille J, Jr., Pittelkow M R, Shipley G D, Scott R E. Integrated control of growth and differentiation of normal human prokeratinocytes cultured in serum-free medium: clonal analyses, growth kinetics, and cell cycle studies. J Cell Physiol 1984;121:31-44). It was supplemented with CaCl2 to bring the final Ca^2+ concentration to 1.4 mM. After transport to the laboratory on ice, the biopsies were incubated in a 96-well dish containing 200 μL of Ca^2+-supplemented KBM with or without additional treatments. Cultures were incubated at 37° C. in an atmosphere of 95% air and 5% CO2. Incubation was for 8 days, with change of medium containing the various treatments every 2 days. […] For the experiment shown in FIG. 4, human skin keratome biopsies were subjected to organ culture in the presence or absence of 3 μM RA followed by RNA isolation and Northern blotting as previously described (Stoll SW, Elder J T. Retinoid regulation of heparin-binding EGF-lke growth factor gene expression in human keratinocytes and skin. Exp Dermatol, 1998;7:391-397), except that the concentration of Ca^2+ was adjusted to 0.1 mM or 1.4 mM by the addition of CaCl2. cDNA insert probes for detection of HB-EGF and 36B4 were prepared and labeled by random priming, as previously described (Stoll and Elder, Supra., 1998).

[3] = tested on: human dermal fibroblasts; test: RA-induced survival of dermal fibroblasts in low-Ca2+ monolayer culture; type: cell-based; conditions: 3 μM RA, 48 hours, KBM 0.15 mM CaCl2
Procedure: Normal human epidermal keratinocytes were obtained from skin biopsies and maintained in monolayer culture using Keratinocyte Growth Medium (KGM) (Clonetics, Inc., Walkersville, Md.). KGM contains the same basal medium as KBM, but is further supplemented with a mixture of growth factors including 0.1 ng/mL EGF, 0.5 μg/mL insulin, and 2% bovine pituitary extract. In some experiments, the HaCaT line of immortalized human epidermal keratinocytes (Boukamp P, Petrussevska R T, Breitkreutz D, Hornung J, Markham A, Fusenig N E. Normal keratinization in a spontaneously immortalized aneuploid human keratinocyte cell line. J Cell Biol, 1988;106:761-771) was used in place of normal keratinocytes. We (J.V., S.W.S., and J.T.E., unpublished observations) and others (Chaturvedi V, Qin J Z, Denning M F, Choubey D, Diaz M O, Nickoloff B J. Apoptosis in proliferating, senescent, and immortalized keratinocytes. J Biol Chem, 1999;274:23358-23367) have observed that HaCaT cells grow well in KGM. Therefore, HaCaT cells and NHK were propagated in exactly the same manner. Fibroblasts obtained from human skin were grown in monolayer culture using Dulbecco's modified minimal essential medium supplemented with nonessential amino acids and 10% fetal bovine serum (DMEM-FBS). Both keratinocytes and fibroblasts were maintained at 37° C. in an atmosphere of 95% air and 5% CO2. […]

[4] = tested on: HB-EGF mRNA; test: HB-EGF mRNA in human skin organ culture (Northern blotting); type: cell-based; conditions: 3 μM RA, 8 hours
From the text: Immediately upon biopsy, the tissue was immersed in culture medium consisting of Keratinocyte Basal Medium (KBM) (Clonetics, Inc., Walkersville, Md.). KBM is a low-Ca^2+, serum-free modification of MCDB-153 medium optimized for high-density keratinocyte growth (Wille J, Jr., Pittelkow M R, Shipley G D, Scott R E. Integrated control of growth and differentiation of normal human prokeratinocytes cultured in serum-free medium: clonal analyses, growth kinetics, and cell cycle studies. J Cell Physiol 1984;121:31-44). It was supplemented with CaCl2 to bring the final Ca^2+ concentration to 1.4 mM. After transport to the laboratory on ice, the biopsies were incubated in a 96-well dish containing 200 μL of Ca^2+-supplemented KBM with or without additional treatments. Cultures were incubated at 37° C. in an atmosphere of 95% air and 5% CO2. Incubation was for 8 days, with change of medium containing the various treatments every 2 days. […]

[5] = tested on: tyrosine kinases residing outside the c-erbB family; conditions: 1 μM; cited from earlier work
[6] = 51Cr-release cytotoxicity assay; type: cell-based, human; conditions: human, human epidermal keratinocytes; KBM + Ca2+; read-out: Cytotoxicity (ID50)
Procedure: (§1) A ^51Cr-release assay was used to measure cytotoxic effects of the irreversible c-erbB-RTK antagonist. For this assay, keratinocytes were initially plated at 2×10^4 cells per well of a 24-well dish in growth medium (KGM) and treated with 1 μCi per well of ^51Cr. After allowing cells to incorporate ^51Cr for one day, the non-incorporated isotope was removed and the cells washed twice in KBM. The cells were then incubated for 18 hours with or without treatments as indicated in Results. At the end of the incubation period, the percentage of Incorporated ^51Cr that was released into the culture medium was determined.

[7] = tested on: human epidermal keratinocytes; test: 51Cr-release cytotoxicity assay; type: cell-based; conditions: for pIC50: read-out: Cytotoxicity (ID50)
Procedure: as §1

[8] = tested on: human epidermal keratinocytes; test: Proliferation assay, keratinocytes in monolayer culture; type: cell-based
Procedure: Normal human epidermal keratinocytes were obtained from skin biopsies and maintained in monolayer culture using Keratinocyte Growth Medium (KGM) (Clonetics, Inc., Walkersville, Md.). KGM contains the same basal medium as KBM, but is further supplemented with a mixture of growth factors including 0.1 ng/mL EGF, 0.5 μg/mL insulin, and 2% bovine pituitary extract. In some experiments, the HaCaT line of immortalized human epidermal keratinocytes (Boukamp P, Petrussevska R T, Breitkreutz D, Hornung J, Markham A, Fusenig N E. Normal keratinization in a spontaneously immortalized aneuploid human keratinocyte cell line. J Cell Biol, 1988;106:761-771) was used in place of normal keratinocytes. We (J.V., S.W.S., and J.T.E., unpublished observations) and others (Chaturvedi V, Qin J Z, Denning M F, Choubey D, Diaz M O, Nickoloff B J. Apoptosis in proliferating, senescent, and immortalized keratinocytes. J Biol Chem, 1999;274:23358-23367) have observed that HaCaT cells grow well in KGM. Therefore, HaCaT cells and NHK were propagated in exactly the same manner. Fibroblasts obtained from human skin were grown in monolayer culture using Dulbecco's modified minimal essential medium supplemented with nonessential amino acids and 10% fetal bovine serum (DMEM-FBS). Both keratinocytes and fibroblasts were maintained at 37° C. in an atmosphere of 95% air and 5% CO2. Cells were sub-cultured by exposure to trypsin/EDTA and used at passage 2-3.
For proliferation assays, cells were initially plated at 4×10^4 cells per well of a 24-well dish in growth medium (KGM for keratinocytes or DMEM-FBS for fibroblasts). After allowing cells to attach for 1 to 2 hours, the medium was removed and the cells washed twice in KBM (keratinocytes) or Ca^2+-supplemented KBM (fibroblasts). The cells were then incubated for 48 hours with or without additional reagents as indicated in Results. At the end of the incubation period, the cells were harvested by trypsinization and enumerated using an automated particle counter (Coulter Electronics, Hialeah, Fla.).

[9] = examined at 1 μM, 5 μM and 10 μM

CC1=C(/C=C/C(C)=C/C=C/C(C)=C\C(=O)O)C(C)(C)CCC1 [Accutane, 13-cis-retinoic acid]
clearing of disease [1]: all dosages provided initial clearing of disease

CC1=C(/C=C/C(C)=C/C=C/C(C)=C/C(=O)O)C(C)(C)CCC1 [RA, all-trans retinoic acid, reference compound]
number of Ki-67-positive cells ([2]; 3 μM RA, 8 days): much larger number of Ki-67-positive cells than did the controls
epidermal thickness (number of epidermal keratinocytes) ([2]; 3 μM RA, 8 days, 1.4 mM Ca2+): The epidermis was thickened
preservation of epithelial viability ([2]; RA added to low-Ca2+ organ cultures): up to 12 days
fibroblast survival [3]: markedly and significantly promoted fibroblast survival
HB-EGF mRNA induction ([4]; 1.4 mM Ca2+): clearly dominant over the inhibitory effect of 1.4 mM Ca^2+
HB-EGF mRNA induction ([4]; low-Ca2+ (0.1 mM)): strongly potentiated

CNc1cc2c(Nc3cccc(Br)c3)ncnc2cn1 [PD 158780, N^4-(3-Bromo-phenyl)-N^6-methyl-pyrido[3,4-d]pyrimidine-4,6-diamine]
antiproliferative activity [2, 9]: detected only at 5 and 10 μM
effects on RA-stimulated hyperplasia [2, 9]: reversed the effects of RA

C=CC(=O)Nc1cc2c(Nc3cccc(Br)c3)ncnc2cc1OCCCN1CCOCC1 [PD 169540, N-[4-(3-bromo-phenylamino)-7-(3-morpholin-4-yl-propoxy)-quinazolin-6-yl]-acrylamide]
effect on tyrosine kinases residing outside the c-erbB family [5]: without effect
IC50 at 18 h [6]: > 1000 nM
pIC50 ([7]; +EGF): < 6.00
pIC50 ([7]; +insulin/pituitary extract): < 6.00
cytotoxicity by 51Cr release ([7]; any of the concentrations tested): virtually no cytotoxicity
reversal of RA-induced epidermal hyperplasia ([2]; 0.5 μM and 0.1 μM inhibitor, 3 μM RA): also effective, albeit less so than 1 μM
reversal of RA-induced epidermal hyperplasia ([2]; 1 μM inhibitor, 3 μM RA): reversed the effects of 3 μM RA
RA-stimulated epidermal thickness by keratinocyte counts (keratinocytes/block) ([2]; RA + inhibitor, FIG. 2): reduction in hyperplasia
reversal of RA-induced epidermal hyperplasia ([2]; concentrations lower than 0.1 μM): no effect
Inhibition of Growth (ID50) ([8]; +EGF): 6 nM
Inhibition of Growth (ID50) ([8]; +insulin/pituitary extract): 900 nM
Inhibition of Growth (ID50) ([8]; KBM + Ca2+): 8 nM
relative potency, organ culture hyperplasia and monolayer proliferation ([8]; comparison of the two c-erbB-RTK antagonists): clearly the more potent compound in both assays
